Measurements from patent US20070269892A1, “FORMULATIONS FOR INTRACELLULAR DELIVERY dsRNA” (NASTECH PHARMACEUTICAL COMPANY INC., priority 2006, published 2007).
PEG10k = poly(ethylene glycol) of 10 kD conjugated to the peptide; PEG2k = PEG 2k (PEG2k-maleimide); Mal = maleimide

How the values were obtained:
G1498 siRNA = test: SYBR-gold dye displacement assay of peptide binding to siRNA, with Scatchard analysis; conditions: for Bmax (Scatchard Analysis) / Kd (Scatchard Analysis) / Max Bound siRNA: siRNA 10 μg/mL; for Max Bound siRNA: peptide:siRNA charge ratio 0.05 to 10; for Relative affinity of binding to siRNA: comparison within Table 7
Method: Peptides (see Table 4, Example 2) are suspended in Hyclone nuclease free water. Test dilutions of this peptide stock are made in sterile, Nuclease-free eppendorf tubes at a 2× final concentration and buffered to pH 7.4 with 20 mM Phosphate. Nine concentrations of each peptide were made, corresponding to charge ratios of approximately 0.05 to 10. The molar ratios and μg/mL and μM concentrations of each peptide corresponding to these charge ratios are detailed in Tables 1, 2 and 3.
SYBR-gold nucleic acid binding dye stock, a 10,000× concentrate, is supplied by Invitrogen (Carlsbad, Calif.) and stored at −20° C. The concentrate is allowed to equilibrate to room temperature before diluting 1 to 100 in Hyclone nuclease free water. This is then diluted 1 to 10 in the experimental plate for a final concentrate of 10× for the assay. This is the optimal dilution to achieve linear binding to siRNA duplex at a concentration range of up to 50 μg/mL concentration. For higher concentrations, the amount of dye to use may be further optimized.
Samples are mixed directly in the 384 well analysis plate. First 5 μL SYBR-gold dye is pipetted into each well with a multichannel pipette, touching the tip to the bottom of the well to draw out the solution completely. Then 22.5 μL of 2× peptide solution is added with a single channel pipette. Since SYBR-gold will not bind to peptide (and peptide samples without siRNA will verify this assumption), there will be no bleaching effect on fluorescence. Finally, 22.5 μL of 2× siRNA is added with a multichannel pipette. The plate is covered immediately with foil and tapped gently to mix and draw down any droplets on the side of the well.
Fluorescence is measured using the SpectraMax fluorescent plate reader from Molecular Devices (Sunnyvale, Calif.). Plate settings include shaking before reading, one read per well, with excitation wavelength of 495 nm and emission wavelength of 537 nm. The plate is read within 30 minutes of the addition of the siRNA.
Scatchard Plot is a plot of peptide binding ([peptide]bound/[peptide]free) vs. [peptide]bound. The slope of the linear regression of this plot is −1/Kd and Bmax is the […]. Since the concentration of free and bound peptide cannot be measured directly, indirect measurements of siRNA is used for the calculation. Free siRNA is determined from measured fluorescence using the standard curve. Bound siRNA is determined from the standard curve by mass balance from the known initial siRNA concentration (10 μg/mL). Bound peptide is calculated from bound siRNA by assuming the (siRNA:Peptide) bound molar ratio is equal to the (siRNA:Peptide) charge ratio for a single molecule pairing. From this calculated bound peptide amount, the free peptide is calculated by mass balance.
The relative binding of various peptides to siRNA via a rapid screen is assessed by indirect measurement of the displacement of SYBR-gold nucleic acid binding dye. A buffered mixture of siRNA, peptide and SYBR-gold is prepared in the measurement plate in duplicate such that the peptide and SYBR-gold dye undergoes simultaneous competitive binding of the siRNA. The concentration of siRNA is fixed at 10 μg/mL and is combined with a titration of each peptide ranging in a concentration that corresponds to a peptide:siRNA charge ratio between 0.05 to 10. Since SYBR-gold dye only fluoresces when bound to siRNA, peptide binding to the siRNA is inhibits binding of the dye and consequently reduces the fluorescence. Therefore, the amount of fluorescence correlates inversely to the binding of the peptide to the siRNA.

9L/LacZ cells [1] = test: Micro BCA total protein assay (toxicity); format: cell-based; conditions: study 1, 100 nM, N/P=2
Method: For study 1 and 2, 7,000-10,000 9L/LacZ cells (passage 5-25) were plated in cell culture media in each well of a 96-well plate and grown overnight. Cells (in 75 μl of media) were transfected by adding 25 μl of each formulation to be tested; 4 hours thereafter 100 μl of fresh media is added to each well, which media is replaced with 100 μl of fresh media approximately 16 hours later. […] Cells were harvested 3 days after transfection by the addition of 50 μl of lysis buffer for β-galactosidase and Micro BCA assays.
For study 1 and 2, a Micro BCA assay (Pierce Chemical Company, Rockford, Ill.) was performed in order to measure total protein concentration, as follows: 9L/LacZ cells were washed 1× with phosphate buffered saline (PBS). Then, 50 μl of M-PER® Reagent was added to each well and incubated for 15 minutes at room temperature. After incubation, 10 μl of each lysate was transferred to a new well (using a 96-well plate format) containing 140 μl of dH20, and then 150 μl of Micro BCA working solution was added. The plates were covered, incubated at 37° C. for 2 hours and then the absorbance measured at 562 nm was recorded.

Lac-Z = conditions: study 2, 100 nM, N/P=2, 0.1% pluronic F127
Method: The LacZ assay was performed three days post-transfection. Cells were rinsed with phosphate buffers saline (PBS) after removal of cell media. The PBS was aspirated and the cells were lysed by the addition of 50 μl M-PER™ to each well and incubating the cells for 15 minutes while gently shaking. Following cell lysis, 10 μl of cell lysate was removed from each well to perform a total protein assay (micro BCA kit, Pierce). In order to measure LacZ activity, 30 μl of cell lysate was transferred to a new plate and 30 μl of ALL-IN-ONE™ beta-galactosidase (β-gal) was added to each well of the new plate. The new plate was covered to avoid light exposure and incubated for 30 minutes at 37° C. Following the 30 minute incubation, the absorbance was read at 405 nm with a μQuant plate reader (Bio-Trek Instrument) to measure LacZ activity.
For study 1 and 2, 7,000-10,000 9L/LacZ cells (passage 5-25) were plated in cell culture media in each well of a 96-well plate and grown overnight. […]
For study 1 and 2, a Micro BCA assay (Pierce Chemical Company, Rockford, Ill.) was performed in order to measure total protein concentration, as follows: 9L/LacZ cells were washed 1× with phosphate buffered saline (PBS). […] The plates were covered, incubated at 37° C. for 2 hours and then the absorbance measured at 562 nm was recorded. […]

[2] = Particle size analysis of siRNA/peptide polymer formulations; format: physicochemical; conditions: 24 hours after formulation, siRNA 0.8 μM/peptide polymers, N/P=2
Method: Formulations for particle size analysis were prepared in Hepes 11 mM pH7.4, at a siRNA concentration of 0.8 uM (11.59 μg/ml) and then diluted into OPTI-MEM. For nanoparticle size analysis of siRNA/peptide polymers, we used 1 ug RNA/0.8 nmols peptide polymer (based on monomer). The total vol of sample was 1 ml containing 50 ug RNA and 40 nmol peptide polymer in Hepes buffer mannitol (5 mM HEPES, 5% mannitol, pH 7.5) (Filter). The particle size analysis was performed on a Zeta Plus/Zeta potential analyzer.
Briefly, buffer was added first and then concentrated siRNA was added followed by votexing for 3 seconds (at full speed). The peptide polymer was then added followed by votexing for an additional 6 seconds (at full speed). Formulations were maintained at room temperature for 10 minutes. In a 96-well plate format, formulations were then diluted 20× for a final siRNA concentration of 10 nM (6.25 μl into 118.75 μl of OPTI-MEM) or 2× for a final concentration of 100 nM (62.5 μl of formulation into 62.5 μl OPTI-MEM). After dilution, formulations were mixed gently. For positive control preparation, 0.5 μl of HiPerFect was diluted into 12.5 μl of OPTI-MEM and 0.5 μl of siRNA into 12.5 μl of OPTI-MEM, respectively; and incubated at room temperature for 5 minutes, and then combined diluted siRNA and diluted HiPerFect, and incubated at room temperature for 15 minutes. A formulation pH of about 7.4 was chosen in order to minimize reduction of peptide that is polymerized through cycteine disulfide bonds.
Particle size was measured 24 hours after formulation of siRNA 0.8 μM/peptide polymers (N/P=2). […] In summary, all formulation tested in this study formed particles at about or less than about 100 nm.

9L/LacZ cells [3] = test: Cellular uptake of peptide/siRNA condensates (fluorescence intensity); format: cell-based; conditions: study 2; NT peptides at 100 nM, N/P=2 with pluronic F127; PN0593/PN0594 at varying N/P
Method: Cells are plated per well in 24-well plates the day before transfection in complete media. The siRNA is labeled, for example with Cy-5 conjugate. The peptide/siRNA condensates are added to cells previously washed with phosphate buffered saline (PBS). Cells were transfected for three hours at 37° C., 5% CO2. Cells were washed with PBS, treated with trypsin, and then analyzed by flow cytometry.
siRNA cell-uptake was measured by the intensity of intracellular Cy5 fluorescence. The cell-uptake assay is used to determine the percentage of cells that contain the Cy5-conjugated siRNA. Mean Fluorescence Intensity (MFI) is used to determine the relative mean quantity of Cy5-conjugated siRNA that entered the cells.

[4] = Glutathione (GSH) mediated siRNA release from disulfide cross-linked peptide siRNA particles; format: physicochemical; conditions: 5 ug siRNA/4 nmols peptide polymer, GSH 0.5 mg
Method: In a separate experiment, glutathione (GSH) was added to disulfide cross-linked peptide siRNA particles (which may be referred to as nanoparticles) in order to detect siRNA release from disulfide cross-linked peptide siRNA condensates. The reduction of the peptide polymers, leading to dissociation and release of siRNA was monitored by continues measurement of the fluorescence intensity of […] over 15 minutes. Briefly, siRNA nanoparticles (N/P: 5 ug siRNA/4 nmols peptide polymer) were treated with reducing agent glutathione (GSH, 0.5 mg scale) and thiazole orange (0.1 ug) in 1 ml sample in HBM buffer pH 7.5. The fluorescence intensity was monitored over 15 min at Ex 498 nm and Emi 546 nm. Samples tested were (1) siRNA and Thiazole orange (No peptide polymer, No GSH), (2) Peptide polymer, siRNA and Thiazole orange (No GSH), and (3) Peptide polymer, siRNA, Thiazole orange and GSH.

Row | Substance | Bmax (Scatchard Analysis) (G1498 siRNA) [μMbound/μMfree] | Kd (Scatchard Analysis) (G1498 siRNA) [µM⁻¹] | Max Bound siRNA (G1498 siRNA) [% mole %] | Particle size [2] | Uptake (9L/LacZ cells [3]) | other results
1 | PEG10k-Mal-(Lys)15-amide ({PEG10k-Mal}-KKKKKKKKKKKKKKK-NH2) [PN0931-2] | 0.992 | 0.130 | 47 |  |  | 
2 | Cys-Trp-(Lys)4-Cys (CWKKKKC) [NT-18] |  |  |  | about 105 nm | good uptake | Toxicity (total protein expression) (9L/LacZ cells [1]): no apparent toxicity; Knockdown of gene expression (Lac-Z): about 20%
3 | RRRRRRRRR [PN0861-2, Ac-(Arg)9-amide] | 0.198 | 0.771 | 68 |  |  | Relative affinity of binding to siRNA (G1498 siRNA): greatest affinity
4 | NH2-VRLPPPVRLPPPVRLPPP-amide (H-VRLPPPVRLPPPVRLPPP-NH2) [PN0593] |  |  |  |  | very low | 
5 | PEG2k-Mal-(Lys)10-amide ({PEG2k-Mal}-KKKKKKKKKK-NH2) [PN0933-2] | 0.241 | 0.326 | 39 |  |  | 
6 | NH2-PLKPLKPLKPLKPLKPLK-amide (H-PLKPLKPLKPLKPLKPLK-NH2) [PN0594] |  |  |  |  | very low | 
7 | PEG10k-Mal-(Lys)30-amide [PN0907-2] |  |  | 58 |  |  | 
8 | Cys-Trp-(Lys)4-Cys-(Lys)4-Cys (CWKKKKCKKKKC) [NT-22] |  |  |  | about 90.8 nm |  | 
9 | KKKKKKKKK [PN0860-2, Ac-(Lys)9-amide] | 0.379 | 0.204 | 43 |  |  | 
10 | RRRRRRRRRRRRRRRRRR [PN0859-2, Ac-(Arg)18-amide] | 0.495 | 0.929 | 64 |  |  | Relative affinity of binding to siRNA (G1498 siRNA): greatest affinity
11 | Cys-Trp-His-(Lys)4-His-(Lys)4-His-Cys (CWHKKKKHKKKKHC) [NT-25] |  |  |  | about 64.6 nm |  | 
12 | Cys-Trp-(Lys)10-Cys (CWKKKKKKKKKKC) [NT-21] |  |  |  | about 55.7 nm | good uptake | Reduction of peptide polymer by GSH with siRNA release [4]: exception
13 | Cys-Trp-(Lys)8-Cys (CWKKKKKKKKC) [NT-20] |  |  |  | about 67.6 nm | good uptake | 
14 | Cys-Trp-(Lys)6-Cys (CWKKKKKKC) [NT-19] |  |  |  | about 78.7 nm | good uptake | Toxicity (total protein expression) (9L/LacZ cells [1]): no apparent toxicity; Knockdown of gene expression (Lac-Z): about 27%
15 | Cys-Trp-(Lys)4-His-(Lys)4-Cys (CWKKKKHKKKKC) [NT-23] |  |  |  | about 65.7 nm |  | 
16 | KKKKKKKKKKKKKKKKKK [PN0858-1, Ac-(Lys)18-amide] | 0.828 | 0.348 | 66 |  |  | 
17 | PEG2k-Mal-(Lys)15-amide ({PEG2k-Mal}-KKKKKKKKKKKKKKK-NH2) [PN0930-2] | 0.560 | 0.250 | 48 |  |  | 
18 | KKKKKKKKKKKKKKKKKKKK [PN0924-1, NH2-(Lys)20-amide] | 0.883 | 0.426 | 71 |  |  | 
19 | Cys-Trp-His-(Lys)4-His-(Lys)4-Cys (CWHKKKKHKKKKC) [NT-24] |  |  |  | about 82.2 nm |  | Toxicity (total protein expression) (9L/LacZ cells [1]): no apparent toxicity
20 | PEG2k-Mal-(Lys)25-amide [PN0925-2] | 2.077 | 0.150 | 59 |  |  | 
